Measurements taken from ChEMBL document CHEMBL1201862, “PubChem BioAssay data set” (2004).
Active and inactive are the calls of the source.

What was measured:
[1] = target: T1, High affinity choline transporter 1 (Homo sapiens, UniProt Q9GZV3); test: human choline transporter potentiators, potency – cell-based, 10-point CRC, membrane potential dye, dose response (AID 602376); format: functional
T1 sequence (Q9GZV3 whole entry): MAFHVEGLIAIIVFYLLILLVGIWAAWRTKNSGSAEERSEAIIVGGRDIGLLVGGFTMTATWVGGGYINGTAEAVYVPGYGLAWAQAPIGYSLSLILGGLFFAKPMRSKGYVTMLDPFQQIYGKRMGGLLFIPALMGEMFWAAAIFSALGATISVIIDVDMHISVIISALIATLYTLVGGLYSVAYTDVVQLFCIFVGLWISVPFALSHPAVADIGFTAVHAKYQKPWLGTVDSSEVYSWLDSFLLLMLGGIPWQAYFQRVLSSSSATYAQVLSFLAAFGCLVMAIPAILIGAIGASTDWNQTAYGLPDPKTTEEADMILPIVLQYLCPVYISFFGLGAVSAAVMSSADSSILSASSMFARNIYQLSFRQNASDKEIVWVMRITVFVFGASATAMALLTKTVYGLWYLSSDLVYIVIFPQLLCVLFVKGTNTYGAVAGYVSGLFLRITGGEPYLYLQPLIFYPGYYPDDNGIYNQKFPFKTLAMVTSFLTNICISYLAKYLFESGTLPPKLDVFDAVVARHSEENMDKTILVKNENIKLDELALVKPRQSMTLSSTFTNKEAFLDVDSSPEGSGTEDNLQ

Estrogen receptor beta = Estrogen receptor beta (Homo sapiens, UniProt Q92731); test: blockers of SRC-3 recruitment to ERβ – biochemical, ELISA, streptavidin-HRP readout, orthogonal assay, confirmation (AID 1060)
[2] = target: T2, DNA dC->dU-editing enzyme APOBEC-3A (Homo sapiens, UniProt P31941); test: Dose Response confirmation of small molecule APOBEC3A DNA Deaminase Inhibitors via a fluorescence-based single-stranded DNA deaminase assay. [Related pubchem assays (depositor defined):AID493011, AID493024]; format: functional
[3] = target: T3, DNA dC->dU-editing enzyme APOBEC-3G (Homo sapiens, UniProt Q9HC16); format: functional
[4] = target: T2, DNA dC->dU-editing enzyme APOBEC-3A; test: SAR analysis of small molecule inhibitors of APOBEC3A DNA Deaminase via a fluorescence-based single-stranded DNA deaminase assay - Set 2.; format: functional; conditions: read-out: IC50_Mean
[5] = target: T3, DNA dC->dU-editing enzyme APOBEC-3G; test: SAR analysis of small molecule inhibitors of APOBEC3G DNA Deaminase via a fluorescence-based single-stranded DNA deaminase assay - Set 2.; format: functional; conditions: read-out: IC50_Mean
[6] = target: T3, DNA dC->dU-editing enzyme APOBEC-3G; test: inhibition of APOBEC3G ssDNA deamination – biochemical, fluorescence, single-stranded DNA substrate, SAR follow-up (AID 602136); format: functional; conditions: read-out: IC50_Mean
[7] = target: T2, DNA dC->dU-editing enzyme APOBEC-3A; test: SAR analysis of small molecule inhibitors of APOBEC3A DNA Deaminase via a fluorescence-based single-stranded DNA deaminase assay.; format: functional; conditions: read-out: IC50_Mean
[8] = target: Low molecular weight phosphotyrosine protein phosphatase (Homo sapiens, UniProt P24666); format: functional; conditions: read-out: IC50_Mean;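 note: Dose-response confirmation assay measuring inhibition of LMPTP enzyme activity by fluorescence intensity read-out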
[9] = Vero cell cytotoxicity, cytotoxicity control for M. tuberculosis inhibitor project, purified and synthesized samples, set 3 (AID 504684); format: functional
[10] = A Cell Based Secondary Assay to Explore Cytotoxicity in HepG2 Cells of Compounds that Modulate Mycobacterium tuberculosis in Media Containing Glycerol versus Media without Glycerol (2).; format: functional
[11] = target: Melanin-concentrating hormone receptor 1 (Homo sapiens, UniProt Q99705); test: Late-stage fluorescence-based counterscreen for antagonists of the G-protein coupled receptor 7 (GPR7): cell-based dose response assay to identify antagonists of the melanin-concentrating hormone receptor 1 (MCHR1) Set 6.; format: functional
[12] = target: T4, Neuropeptides B/W receptor type 1 (Homo sapiens, UniProt P48145); test: human NPBW1 receptor blockade, IC50 – cell-based, fluorescence, dose response, set 6, late-stage follow-up (AID 588583); format: functional
T4 sequence (P48145 whole entry): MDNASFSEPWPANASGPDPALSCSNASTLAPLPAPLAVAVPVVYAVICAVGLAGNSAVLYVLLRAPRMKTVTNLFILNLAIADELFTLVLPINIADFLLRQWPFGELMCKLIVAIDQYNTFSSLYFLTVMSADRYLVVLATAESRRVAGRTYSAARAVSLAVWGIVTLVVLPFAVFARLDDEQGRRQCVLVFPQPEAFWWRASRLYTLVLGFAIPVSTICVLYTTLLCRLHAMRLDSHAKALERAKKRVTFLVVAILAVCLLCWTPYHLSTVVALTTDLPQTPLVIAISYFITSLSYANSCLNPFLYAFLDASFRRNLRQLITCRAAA

[13] = target: G protein-coupled receptor kinase 5 (Homo sapiens, UniProt P34947); test: Navigating the Kinome. Panel member name: GPRK5; format: functional
[14] = target: Cyclin-dependent kinase 8 (Homo sapiens, UniProt P49336); test: Navigating the Kinome. Panel member name: CDK8; format: functional
[15] = target: Serine/threonine-protein kinase pim-1 (Homo sapiens, UniProt P11309); format: functional
[16] = target: Cell division cycle 7-related protein kinase (Homo sapiens, UniProt O00311); format: functional;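 note: value obtained from a kinome-wide kinase panel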
[17] = target: Homeodomain-interacting protein kinase 2 (Homo sapiens, UniProt Q9H2X6); format: functional;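 note: measured within a kinome-wide kinase profiling panel, HIPK2 being one panel member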
[18] = target: MAP kinase-interacting serine/threonine-protein kinase 2 (Homo sapiens, UniProt Q9HBH9); format: functional
[19] = target: T5, Interleukin-1 receptor-associated kinase 4 (Homo sapiens, UniProt Q9NWZ3); format: functional
T5 sequence (Q9NWZ3 whole entry): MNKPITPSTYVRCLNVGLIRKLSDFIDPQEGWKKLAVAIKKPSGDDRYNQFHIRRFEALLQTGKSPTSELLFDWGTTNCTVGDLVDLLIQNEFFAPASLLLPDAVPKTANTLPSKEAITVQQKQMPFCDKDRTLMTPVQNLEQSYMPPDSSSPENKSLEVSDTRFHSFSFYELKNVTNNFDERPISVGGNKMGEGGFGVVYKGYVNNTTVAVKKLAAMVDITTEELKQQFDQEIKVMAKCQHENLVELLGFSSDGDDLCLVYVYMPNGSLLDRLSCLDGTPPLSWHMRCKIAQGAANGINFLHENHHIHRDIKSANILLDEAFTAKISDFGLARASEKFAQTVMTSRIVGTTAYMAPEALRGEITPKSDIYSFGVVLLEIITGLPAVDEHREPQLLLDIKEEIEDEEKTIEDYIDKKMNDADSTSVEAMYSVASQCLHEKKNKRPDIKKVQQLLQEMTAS

[20] = target: Glycogen synthase kinase-3 beta (Homo sapiens, UniProt P49841); format: functional;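 note: value comes from a broad kinome profiling panel, with GSK3B as the panel member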
[21] = target: cAMP-dependent protein kinase catalytic subunit alpha (Homo sapiens, UniProt P17612); format: functional
[22] = target: Dual specificity protein kinase CLK4 (Homo sapiens, UniProt Q9HAZ1); format: functional
[23] = target: Mitogen-activated protein kinase kinase kinase kinase 4 (Homo sapiens, UniProt O95819); format: functional
[24] = target: Sphingosine 1-phosphate receptor 1 (Homo sapiens, UniProt P21453); test: Late-stage fluorescence-based dose-response cell-based counterscreen assay to identify agonists of the Sphingosine 1-Phosphate Receptor 4 (S1P4): Sphingosine 1-Phosphate Receptor 1 (S1P1) agonist assay Set 2.; format: functional
[25] = target: Sphingosine 1-phosphate receptor 5 (Homo sapiens, UniProt Q9H228); test: activation of human S1P5 receptor – cell-based, fluorescence, set 2, counter-screen for S1P4 agonist project, late-stage follow-up (AID 504867); format: functional
[26] = target: Sphingosine 1-phosphate receptor 3 (Homo sapiens, UniProt Q99500); test: Late-stage fluorescence-based dose-response cell-based counterscreen assay to identify agonists of the Sphingosine 1-Phosphate Receptor 4 (S1P4): Sphingosine 1-Phosphate Receptor 3 (S1P3) agonist assay Set 2.; format: functional
[27] = target: Sphingosine 1-phosphate receptor 2 (Homo sapiens, UniProt O95136); test: activation of human S1P2 receptor – cell-based, fluorescence, set 2, counter-screen for S1P4 agonist project, late-stage follow-up (AID 504873); format: functional
[28] = target: Cyclin-dependent kinase 2 (Homo sapiens, UniProt P24941); format: functional;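 note: CDK2 measured as one member of a broad kinome profiling panel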

T2 sequence (P31941 whole entry): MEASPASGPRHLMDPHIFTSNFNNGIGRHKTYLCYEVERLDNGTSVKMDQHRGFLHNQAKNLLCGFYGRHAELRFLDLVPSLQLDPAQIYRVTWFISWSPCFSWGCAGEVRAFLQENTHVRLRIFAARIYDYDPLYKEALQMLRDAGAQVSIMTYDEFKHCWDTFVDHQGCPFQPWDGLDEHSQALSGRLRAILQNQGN
T3 sequence (Q9HC16 whole entry): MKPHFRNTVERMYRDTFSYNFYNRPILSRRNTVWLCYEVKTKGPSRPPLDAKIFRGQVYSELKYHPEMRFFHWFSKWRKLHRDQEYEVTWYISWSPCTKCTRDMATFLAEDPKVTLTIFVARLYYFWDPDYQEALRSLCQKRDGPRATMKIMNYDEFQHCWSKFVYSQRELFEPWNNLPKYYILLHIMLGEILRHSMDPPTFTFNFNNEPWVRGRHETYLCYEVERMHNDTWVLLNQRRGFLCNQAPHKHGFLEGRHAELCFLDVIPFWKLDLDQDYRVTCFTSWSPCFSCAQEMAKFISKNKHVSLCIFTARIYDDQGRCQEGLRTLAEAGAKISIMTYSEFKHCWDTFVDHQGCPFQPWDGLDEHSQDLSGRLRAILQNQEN
Chain of Serine/threonine-protein kinase pim-1 (P11309 whole entry): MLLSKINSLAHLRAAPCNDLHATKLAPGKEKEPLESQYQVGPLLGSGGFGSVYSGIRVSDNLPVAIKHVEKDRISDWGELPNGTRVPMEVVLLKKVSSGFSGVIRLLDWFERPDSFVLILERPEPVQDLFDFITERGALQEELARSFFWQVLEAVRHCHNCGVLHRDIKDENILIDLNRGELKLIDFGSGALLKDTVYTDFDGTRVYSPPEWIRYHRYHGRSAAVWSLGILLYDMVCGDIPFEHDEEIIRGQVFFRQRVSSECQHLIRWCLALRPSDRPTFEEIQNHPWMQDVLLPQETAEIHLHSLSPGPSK
Chain of Cell division cycle 7-related protein kinase (O00311 whole entry): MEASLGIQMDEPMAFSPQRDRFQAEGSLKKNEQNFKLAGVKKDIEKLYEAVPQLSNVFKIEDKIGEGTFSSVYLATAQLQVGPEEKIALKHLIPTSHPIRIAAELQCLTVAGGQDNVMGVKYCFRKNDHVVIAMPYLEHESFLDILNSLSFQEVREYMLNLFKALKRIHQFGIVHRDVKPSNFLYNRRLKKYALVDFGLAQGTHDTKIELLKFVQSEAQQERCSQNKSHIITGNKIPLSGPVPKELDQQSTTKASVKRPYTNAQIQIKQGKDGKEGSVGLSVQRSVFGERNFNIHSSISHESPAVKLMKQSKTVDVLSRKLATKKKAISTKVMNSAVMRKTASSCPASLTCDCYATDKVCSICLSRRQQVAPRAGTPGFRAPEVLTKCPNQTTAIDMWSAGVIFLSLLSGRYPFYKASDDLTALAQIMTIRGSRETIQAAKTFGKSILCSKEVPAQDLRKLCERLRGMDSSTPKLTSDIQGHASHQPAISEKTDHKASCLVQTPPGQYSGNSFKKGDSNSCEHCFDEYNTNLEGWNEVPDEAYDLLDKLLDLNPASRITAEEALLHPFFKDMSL
Chain of Dual specificity protein kinase CLK4 (Q9HAZ1 whole entry): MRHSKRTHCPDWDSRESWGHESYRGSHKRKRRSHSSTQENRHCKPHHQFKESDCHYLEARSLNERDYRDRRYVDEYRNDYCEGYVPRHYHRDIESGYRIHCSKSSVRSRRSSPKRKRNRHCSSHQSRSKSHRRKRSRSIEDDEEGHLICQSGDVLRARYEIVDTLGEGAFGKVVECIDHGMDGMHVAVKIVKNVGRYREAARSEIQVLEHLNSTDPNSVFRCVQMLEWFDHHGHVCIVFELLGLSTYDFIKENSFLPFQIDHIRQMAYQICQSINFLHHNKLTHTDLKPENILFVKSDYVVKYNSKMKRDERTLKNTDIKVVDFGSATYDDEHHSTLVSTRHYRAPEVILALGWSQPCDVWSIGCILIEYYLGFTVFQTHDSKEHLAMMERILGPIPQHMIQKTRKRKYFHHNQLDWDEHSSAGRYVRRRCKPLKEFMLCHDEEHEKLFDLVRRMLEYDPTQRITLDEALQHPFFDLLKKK
Chain of Glycogen synthase kinase-3 beta (P49841 whole entry): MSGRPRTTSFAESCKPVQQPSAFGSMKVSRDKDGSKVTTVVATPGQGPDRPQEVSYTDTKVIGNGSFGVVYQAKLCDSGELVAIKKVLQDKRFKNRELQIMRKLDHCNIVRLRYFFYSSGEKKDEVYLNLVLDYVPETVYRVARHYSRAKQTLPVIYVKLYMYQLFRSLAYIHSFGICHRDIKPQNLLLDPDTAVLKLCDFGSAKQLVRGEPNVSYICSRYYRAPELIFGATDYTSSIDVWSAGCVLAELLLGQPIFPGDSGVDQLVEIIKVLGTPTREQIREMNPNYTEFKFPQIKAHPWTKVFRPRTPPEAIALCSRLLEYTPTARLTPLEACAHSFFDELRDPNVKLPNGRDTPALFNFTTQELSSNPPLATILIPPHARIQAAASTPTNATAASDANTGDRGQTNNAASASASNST
Chain of Homeodomain-interacting protein kinase 2 (Q9H2X6 whole entry): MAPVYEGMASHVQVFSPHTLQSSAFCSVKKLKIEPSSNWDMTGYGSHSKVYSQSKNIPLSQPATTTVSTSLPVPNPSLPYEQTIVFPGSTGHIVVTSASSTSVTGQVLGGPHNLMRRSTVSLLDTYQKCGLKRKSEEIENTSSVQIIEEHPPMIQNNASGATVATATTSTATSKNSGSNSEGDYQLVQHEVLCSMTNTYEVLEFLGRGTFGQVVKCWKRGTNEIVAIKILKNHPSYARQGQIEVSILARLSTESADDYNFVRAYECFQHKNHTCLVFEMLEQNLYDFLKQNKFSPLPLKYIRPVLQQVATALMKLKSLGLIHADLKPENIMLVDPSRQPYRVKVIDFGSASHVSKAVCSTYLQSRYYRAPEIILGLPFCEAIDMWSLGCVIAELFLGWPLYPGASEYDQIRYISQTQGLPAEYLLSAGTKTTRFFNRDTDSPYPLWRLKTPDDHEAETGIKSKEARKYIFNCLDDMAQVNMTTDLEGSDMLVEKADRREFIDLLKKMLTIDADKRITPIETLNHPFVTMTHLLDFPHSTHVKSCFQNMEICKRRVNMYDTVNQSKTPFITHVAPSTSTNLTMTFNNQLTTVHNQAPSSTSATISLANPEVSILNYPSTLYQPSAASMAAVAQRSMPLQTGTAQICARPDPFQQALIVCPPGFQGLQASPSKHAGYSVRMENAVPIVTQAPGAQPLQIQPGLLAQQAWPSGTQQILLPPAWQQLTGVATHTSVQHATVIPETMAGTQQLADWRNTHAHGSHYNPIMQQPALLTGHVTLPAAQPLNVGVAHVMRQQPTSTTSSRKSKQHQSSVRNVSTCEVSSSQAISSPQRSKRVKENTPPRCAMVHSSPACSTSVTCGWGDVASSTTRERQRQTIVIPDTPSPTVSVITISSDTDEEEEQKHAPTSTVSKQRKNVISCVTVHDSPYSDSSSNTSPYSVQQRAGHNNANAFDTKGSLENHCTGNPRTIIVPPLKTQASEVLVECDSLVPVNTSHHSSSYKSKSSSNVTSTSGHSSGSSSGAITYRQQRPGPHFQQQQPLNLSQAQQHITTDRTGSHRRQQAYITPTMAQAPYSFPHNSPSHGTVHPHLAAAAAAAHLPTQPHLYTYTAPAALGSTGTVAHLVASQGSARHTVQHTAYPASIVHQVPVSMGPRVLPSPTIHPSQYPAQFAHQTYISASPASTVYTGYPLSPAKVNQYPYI
Chain of Mitogen-activated protein kinase kinase kinase kinase 4 (O95819 whole entry): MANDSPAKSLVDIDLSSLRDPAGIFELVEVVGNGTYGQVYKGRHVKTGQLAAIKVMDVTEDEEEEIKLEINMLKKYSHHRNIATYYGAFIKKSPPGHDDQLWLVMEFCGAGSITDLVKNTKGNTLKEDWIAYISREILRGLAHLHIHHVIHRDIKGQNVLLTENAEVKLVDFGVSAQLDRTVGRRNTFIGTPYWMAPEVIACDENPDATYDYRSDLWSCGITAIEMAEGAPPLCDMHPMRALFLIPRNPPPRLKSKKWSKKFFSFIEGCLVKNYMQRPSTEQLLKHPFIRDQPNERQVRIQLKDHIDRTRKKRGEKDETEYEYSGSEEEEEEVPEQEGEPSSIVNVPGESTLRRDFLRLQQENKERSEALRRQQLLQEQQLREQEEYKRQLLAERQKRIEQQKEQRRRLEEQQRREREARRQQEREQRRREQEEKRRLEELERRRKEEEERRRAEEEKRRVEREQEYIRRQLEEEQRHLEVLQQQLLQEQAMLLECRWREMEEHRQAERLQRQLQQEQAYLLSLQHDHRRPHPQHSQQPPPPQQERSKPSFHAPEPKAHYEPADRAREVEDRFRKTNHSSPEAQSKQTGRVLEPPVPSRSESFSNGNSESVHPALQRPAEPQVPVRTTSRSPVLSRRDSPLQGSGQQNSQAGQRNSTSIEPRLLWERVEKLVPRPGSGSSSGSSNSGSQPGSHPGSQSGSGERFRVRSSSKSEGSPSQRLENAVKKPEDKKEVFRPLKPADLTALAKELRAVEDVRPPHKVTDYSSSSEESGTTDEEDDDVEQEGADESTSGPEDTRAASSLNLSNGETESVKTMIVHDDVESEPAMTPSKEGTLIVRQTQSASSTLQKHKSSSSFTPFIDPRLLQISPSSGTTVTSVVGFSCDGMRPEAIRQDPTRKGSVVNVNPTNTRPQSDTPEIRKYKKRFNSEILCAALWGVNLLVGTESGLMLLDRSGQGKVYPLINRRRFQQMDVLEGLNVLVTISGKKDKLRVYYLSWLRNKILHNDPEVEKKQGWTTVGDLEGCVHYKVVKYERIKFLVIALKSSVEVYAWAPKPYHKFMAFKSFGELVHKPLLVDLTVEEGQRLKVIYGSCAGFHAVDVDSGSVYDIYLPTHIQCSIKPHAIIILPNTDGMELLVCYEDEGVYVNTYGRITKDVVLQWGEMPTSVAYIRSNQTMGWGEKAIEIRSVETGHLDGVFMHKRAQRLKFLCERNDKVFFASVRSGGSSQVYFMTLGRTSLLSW
Chain of Low molecular weight phosphotyrosine protein phosphatase (P24666 whole entry): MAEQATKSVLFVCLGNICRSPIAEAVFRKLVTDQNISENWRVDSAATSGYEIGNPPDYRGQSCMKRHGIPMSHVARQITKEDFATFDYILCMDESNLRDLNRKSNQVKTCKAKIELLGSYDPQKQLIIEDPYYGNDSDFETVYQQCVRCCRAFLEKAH

For `O=C1N(Cc2cccc(Cl)c2)C[C@@H]2C[C@@H](c3cccn3-c3ccccn3)N3CCC[C@@]123`, the EC50 [1] was 8.22 µM (active).

In the case of `O=C(NCc1ccc2c(c1)OCO2)c1cc2ncc(Br)cn2n1`, the IC50 (Estrogen receptor beta) is reported as 0.363 µM (not active), the IC50 [2] is reported as 9.82 µM (active) and the IC50 [3] is reported as 56.5 µM (active). For the same compound, the IC50 [4] was 21.1 µM (inactive), the IC50 [5] was 73.1 µM (inactive) and the IC50 [6] was 35 µM (inactive). The IC50 [7] was 20.3 µM (inactive) and the IC50 [8] was 37.4 µM (inactive).

For `O=C(/C=C\c1cccs1)N1CCN(Cc2ccc3c(c2)OCO3)CC1`, the CC50 [9] was > 100 µM (active) and the CC50 [10] was > 50 µM (active).

With `N#CC(c1c(Cl)cnn(Cc2cccc3ccccc23)c1=O)c1coc2ccccc12` (configuration not stated) the IC50 [11] was 0.294 µM (active) and the IC50 [12] was 0.294 µM (active).

In the case of `Cc1cc(C)cc(NC(=O)NC2=NN(c3ccccc3)C(=O)C2)c1`, the Ki [13] is reported as 3.98 µM (active) and the Ki [14] is reported as 3.16 µM (active).

With `O=C1Nc2ccccc2Nc2cc(-c3ccncc3Cl)ccc21` the Ki [15] was > 10 µM (inactive), the Ki [16] was 0.02 µM (active) and the Ki [17] was 1.26 µM (active). The Ki [18] was 0.2 µM (active), the Ki [19] was 1 µM (active) and the Ki [20] was 0.251 µM (active). For the same compound, the Ki [21] was 0.794 µM (active), the Ki [22] was 0.0631 µM (active) and the Ki [23] was 0.794 µM (active).

With `C/N=C1/SC(=Cc2cc(C)n(Cc3ccc(F)cc3F)c2C)C(=O)N1C` the EC50 [24] was 0.287 µM (active), the EC50 [25] was 0.0371 µM (active) and the EC50 [26] was > 25 µM (inactive). The EC50 [27] was 13.1 µM (inactive).

In the case of `CCOC(=O)c1c[nH]n2c(=O)cc(-c3ccncc3)nc12`, the Ki [28] is reported as > 7.94 µM (inactive), the Ki [15] is reported as 3.16 µM (active) and the Ki [16] is reported as 0.00501 µM (active). For the same compound, the Ki [17] was 0.0501 µM (active), the Ki [19] was > 10 µM (inactive) and the Ki [20] was 0.316 µM (active). The Ki [21] was > 7.94 µM (inactive), the Ki [22] was 0.0251 µM (active) and the Ki [23] was > 10 µM (inactive).
